Results as given in PMC9549500, “Inhibition of TRPC4 channel activity in colonic myocytes by tricyclic antidepressants disrupts colonic motility causing constipation” (Journal of Cellular and Molecular Medicine, 2022).

Target: T1, TRPC4 (Mus musculus, UniProt Q9QUQ5)
T1 construct: native channel in murine sigmoid colonic myocytes
T1 sequence (Q9QUQ5 1-974): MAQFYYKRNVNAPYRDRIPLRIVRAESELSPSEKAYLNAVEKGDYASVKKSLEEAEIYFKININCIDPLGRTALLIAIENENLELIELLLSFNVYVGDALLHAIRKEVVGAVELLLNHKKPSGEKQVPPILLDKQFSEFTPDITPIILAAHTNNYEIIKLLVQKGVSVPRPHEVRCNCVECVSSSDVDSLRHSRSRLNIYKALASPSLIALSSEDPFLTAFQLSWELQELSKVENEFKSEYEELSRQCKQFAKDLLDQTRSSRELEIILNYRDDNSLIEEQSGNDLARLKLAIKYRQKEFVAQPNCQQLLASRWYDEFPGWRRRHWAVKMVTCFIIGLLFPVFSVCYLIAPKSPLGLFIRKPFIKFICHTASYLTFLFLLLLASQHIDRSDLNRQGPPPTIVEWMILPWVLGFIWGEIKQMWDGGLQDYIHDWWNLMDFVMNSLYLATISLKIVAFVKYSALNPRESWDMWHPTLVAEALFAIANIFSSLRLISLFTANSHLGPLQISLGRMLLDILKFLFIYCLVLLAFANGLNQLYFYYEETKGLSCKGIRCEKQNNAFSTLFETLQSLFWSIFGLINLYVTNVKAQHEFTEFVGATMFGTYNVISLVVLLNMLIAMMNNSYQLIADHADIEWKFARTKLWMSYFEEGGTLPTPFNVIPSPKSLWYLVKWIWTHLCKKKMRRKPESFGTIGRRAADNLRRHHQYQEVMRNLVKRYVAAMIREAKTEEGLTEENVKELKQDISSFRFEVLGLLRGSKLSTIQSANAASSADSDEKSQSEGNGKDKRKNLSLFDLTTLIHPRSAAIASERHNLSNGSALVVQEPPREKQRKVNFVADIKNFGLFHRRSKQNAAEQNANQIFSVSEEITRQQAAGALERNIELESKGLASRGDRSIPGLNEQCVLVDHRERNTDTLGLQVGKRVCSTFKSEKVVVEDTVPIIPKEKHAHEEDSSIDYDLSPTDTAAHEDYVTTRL
Assay: whole-cell patch clamp of CCh-evoked mIcat in murine colonic myocytes, […] Pico145; current absent in TRPC4-deficient mice
Type: cell-based

In the case of `Cn1c(=O)n(CCCO)c(=O)c2c1nc(Oc1cccc(OC(F)(F)F)c1)n2Cc1ccc(Cl)cc1` [Pico145], the “whole-cell patch clamp of CCh-evoked mIcat in murine colonic myocytes, 100 nM Pi” value is reported as “The selective and potent antagonist of TRPC4, Pico145, completely blocked the CCh‐evoked current”.
